This is an account of results in US20260347399A1, “BRAIN PENETRATING PEPTIDES AND METHODS OF USE” (priority 2022, published 2026).

Entries after “also recorded” stand apart in the source; their conditions may differ. Ends that are not written are not given here.

The subject of data set [1] is rat CNS. As to the kind of experiment: CVGTNCY peptide-phage biodistribution, rats. The format is in vivo. The settings on record: peptide-phage i.v., 1 h. The procedure: (§1) CVGTNCY (SEQ ID NO:2) peptide-phage or control phage were injected iv into mice, after one hour circulation animals were perfused with 20 ml PBS, organs were collected, weighed, and dropped to 1% NP40-LB solution. Organs were homogenized and titer of each tissue was determined. FAM-labeled peptides (2 mM of peptide in PBS) were injected intravenously and 3 hours later the animals were perfused with 20 mL of PBS. The organs were excised, snap-frozen in the vapor of liquid nitrogen, and stored at −80 °C. For confocal microscopy, the tissues were sectioned at 15 μm and stained with antibodies and DAPI.
(§2) To describe the utility of CVGTNCY (SEQ ID NO:2) peptide as a systemic CNS homing peptide, the biodistribution of CVGTNCY (SEQ ID NO:2) peptide-phage as well as peptide-functionalized AgNPs were analyzed in rodents. […] No significant difference between CVGTNCY (SEQ ID NO:2) and G7 titers was determined in the rest of the analyzed organs/tissues).

Data set [2] has as its system brain tissue homogenate. As to the kind of experiment: Peptide-phage binding to brain tissue homogenate ex vivo. The arrangement: species or system mouse.
Data set [3] has as its system 22 different cell-lines. As to the kind of experiment: CVGTNCY peptide-phage binding on cell lines. The format is cell-based, human or mouse. The settings on record: +4 °C, 1 h; over control phage G7. The procedure: 22 different cell-lines derived from human or mouse tumors or normal tissues were used in the experiments (Table 4).
To evaluate the CVGTNCY (SEQ ID NO:2) peptide-phage binding on cell lines, the CVGTNCY (SEQ ID NO:2) peptide-phage and control G7 phage were incubated on attached cells (except NCH421k cells that grow as speroids) in DMEM-0.5% BSA for 1 hour at +4 °C. Thereafter, the cells were washed four times with DMEM-0.5% BSA and phage was released in 1% NP40-LB to determine the titer of the samples.
An in vitro proximity labeling method was planned to use for the identification of the CVGTNCY (SEQ ID NO:2) peptide receptor. To accomplish receptor search, binding of CVGTNCY (SEQ ID NO:2) peptide-phage on 22 different cell-lines isolated from various tumors and normal tissues was tested.

Data set [4] has as its system mouse CNS. As to the kind of experiment: CVGTNCY peptide-phage biodistribution. The format is in vivo. As to the method:
as §1, §2

The subject of data set [5] is Neuro2A cells. As to the kind of experiment: In vitro AgNP binding and internalization. In kind it is cell-based, mouse. The settings on record: pre-incubated with 100 μM free peptide, 1 h, 37 °C. As to the method: To assess the binding and uptake of silver nanoparticles functionalized with Cerepep, Neuro2A were cultured in 24-well plates on polylysine coated glass coverslips until 80-90% confluency. Biotinylated Cerepep peptide or biotin as a non-targeted control and CF555 dye were conjugated to neutravidin-AgNPs prepared as described previously (Tobi et al., 2021). Some samples were pre-incubated with 100 μM Cerepep peptide (Ac-SERVISRAKLAAAL-OH (SEQ ID NO:9), where Ac-acetylation) at 37 °C for 1 h to assess whether the binding and internalization of particles is peptide-dependent. 10 μl (OD=100) of CP-AgNPs or control biotin-AgNPs were added to cells in 500 μl of media and incubated at 37 °C for 1h. In some samples, the cell surface-bound AgNPs were removed with a freshly prepared etching solution containing 10 mM of Na2S2O3 and K3Fe(CN)6 in PBS, which was applied for 3 min. All the samples were washed with DPBS to remove unbound AgNPs. The cells were fixed in methanol, stained with DAPI and analyzed with confocal microscopy as described above.
Next, the interaction of cultured Neuro2A cells with neutravidin-AgNPs labeled with NHS-CF555 dye and functionalized with biotinylated SRRVISRAKLAAAL (SEQ ID NO: 9) (CP-AgNPs) was tested.

The test system of data set [6] is rat brain. Briefly: Peptide-phage biodistribution after i.v. injection, rats. In kind it is in vivo. Conditions: 1 h. The procedure: For titering-based biodistribution studies, nucleotide sequences coding for peptides of interest were cloned into T7 phage genomic DNA to be expressed on the phage surface as C-terminal fusions to capsid protein. The cloning was performed using complementary oligonucleotides, the phage clones were amplified, and purified as described in (Põšnograjeva, et al., 2022). 5×10^9 pfu of peptide-phage clone was injected i.v. into male Balb/C mice or 5×10^10 pfu of phage was injected into female Sprague-Dawley rats (n=3). 60 min later, the animals were anesthetized and perfused with PBS. The tissues were collected, homogenized, and the amount of phage in tissue lysates was determined by titering using E. coli strain BLT5615.
The brain selectivity of SRRVISRAKLAAAL (SEQ ID NO:9) phage following a systemic administration was studied in mice and rats by determining the titer of […] (SEQ ID NO:9) and control phage in multiple control tissues.

The target of data set [7] is T1, LRP-1 cluster II (Homo sapiens, UniProt Q07954).
T1 construct: detected by anti-human LRP-1 antibody
T1 sequence (Q07954 786-1165 limits assumed): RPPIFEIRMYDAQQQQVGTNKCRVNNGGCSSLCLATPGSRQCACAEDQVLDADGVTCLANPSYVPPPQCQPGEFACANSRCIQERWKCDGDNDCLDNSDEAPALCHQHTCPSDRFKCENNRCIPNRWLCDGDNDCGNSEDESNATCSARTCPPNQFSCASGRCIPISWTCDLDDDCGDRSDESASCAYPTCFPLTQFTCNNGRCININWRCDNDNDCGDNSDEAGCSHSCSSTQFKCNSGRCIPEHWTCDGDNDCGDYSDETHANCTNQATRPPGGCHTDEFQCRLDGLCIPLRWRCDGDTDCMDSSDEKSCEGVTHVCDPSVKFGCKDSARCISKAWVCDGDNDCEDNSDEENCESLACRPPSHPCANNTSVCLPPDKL
As to the kind of experiment: Bead binding assay (FACS). Conditions: 10 nM LRP-1 cluster II, biotinylated peptide on beads. As to the method:
(§3) Briefly, 50 μl of Myone Dynabeads were washed multiple times and incubated with 100 μl of 2 mM biotinylated peptide at room temperature for 2h. Beads were washed twice with PBS, 0.01% Tween 20-DPBS, and 0.01% PBS-BSA. The beads were then incubated overnight with 10 nM LRP-1 cluster II, or LRP-1 cluster III, and Alexa Fluor 647 anti-human LRP-1 antibody (1:200) in PBS with 0.1% BSA (FIGS. 19A-19B).
(§4) The beads were washed several times and analyzed by FACS. Samples are indicated as follows: • Negative control (−ve control): beads incubated with biotin (non-peptide), LRP-1 cluster III protein, and Alexa Fluor 647 anti-human antibody; • Positive control for the cluster II expts: beads incubated with biotinylated-Angiopep2 peptide, LRP-1 cluster II protein and Alexa Fluor 647 anti-human LRP-1 antibody (see FIG. 19A); and • Positive control for cluster III expts: beads incubated with biotinylated-RPAR peptide, Neuropilin-1 b1b2 protein, (1:200) anti-neuropilin-1 antibody, (1:200) and Alexa Fluor 647 anti-rabbit antibody (see FIG. 19B).
(§5) 10,000 events per condition were analyzed. Experient was performed in three replicates per condition and t-test compared scramble sequence (SARVISRAKLARAL (SEQ ID NO:70)) with Cerepep.

The target of data set [8] is T2, LRP-1 cluster III (Homo sapiens, UniProt Q07954).
T2 construct: detected by anti-human antibody
T2 sequence (Q07954 2522-2941 limits assumed): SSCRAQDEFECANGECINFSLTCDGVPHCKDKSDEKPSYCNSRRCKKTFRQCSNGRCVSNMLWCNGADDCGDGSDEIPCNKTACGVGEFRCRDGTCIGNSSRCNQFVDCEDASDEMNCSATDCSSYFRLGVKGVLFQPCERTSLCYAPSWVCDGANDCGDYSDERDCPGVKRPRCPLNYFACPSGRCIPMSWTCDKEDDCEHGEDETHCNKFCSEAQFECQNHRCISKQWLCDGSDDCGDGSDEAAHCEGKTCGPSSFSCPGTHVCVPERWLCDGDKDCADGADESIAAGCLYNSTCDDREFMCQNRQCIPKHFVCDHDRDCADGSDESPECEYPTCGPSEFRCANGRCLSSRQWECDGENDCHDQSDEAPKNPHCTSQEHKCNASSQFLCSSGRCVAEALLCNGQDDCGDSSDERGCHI
As to the kind of experiment: Bead binding assay (FACS). Conditions: 10 nM LRP-1 cluster III, biotinylated peptide on beads. The procedure:
as §3, §4, §5

CVGTNCY: the “homing to CNS vs other organs” value in data set [1] was “homes preferentially to the CNS than to other organs”. In data set [2] (with blood sample, p<0.05), the “binding to brain tissue homogenate ex vivo in the presence of whole blood” value is “significantly increase binding”. In addition, in data set [2] (without blood), the “binding to brain tissue homogenate ex vivo” value is given as “no binding was detected; also recorded: significantly disrupted”. In data set [3], the “peptide-phage binding on cell lines” value was “minimal binding”. Further, the homing preference result in data set [4] (mouse, in vivo) was “homes preferentially to the eyes/brain/CNS”. Besides, in data set [4] (peptide-phage i.v., 1 h, mice), the “homing to other organs” value is listed as “did not show a trend of homing”; the “level in CNS and eyes compared to control G7 phage” value was “High level”; the “regional homing in CNS” value was “tendency to home more to the hippocampus, frontal cortex and cerebellum”.
For “SRRVISRAKLAAAL [Cerepep, SRRVISRAKLAAAL]”, in data set [5], the “effect of free peptide on binding and internalization of CP-AgNPs” value is “abolished”. Besides, the “brain selectivity (titer in brain vs control tissues)” value in data set [6] was “highest accumulation in the brain and low accumulation in all other tested tissues”. In addition, the “interaction with LRP-1 cluster II” value in data set [7] is on record as “interacts with LRP-1 cluster II”. Further, the “interaction with LRP-1 cluster III” value in data set [8] was “interacts with LRP-1 cluster II and cluster III”.
